Values joined by “and” are separate entries in the source; they are usually repeats but may differ in a detail not shown here. Identical values can stand only once.
Assays:
[1] = test system: putative dopaminergic neurons within the VTA; assay: Ventral Tegmental Area dopamine neuron firing; format: in vivo; conditions: rat, iv, 0.17-0.5 h
Pgp transporter = molecular target: T1, Pgp transporter (Homo sapiens, UniProt P08183); assay: Digoxin transport, cell-based assay; format: in vitro ADME
T1 construct: host or cells: unnamed cells
T1 sequence (P08183 whole entry): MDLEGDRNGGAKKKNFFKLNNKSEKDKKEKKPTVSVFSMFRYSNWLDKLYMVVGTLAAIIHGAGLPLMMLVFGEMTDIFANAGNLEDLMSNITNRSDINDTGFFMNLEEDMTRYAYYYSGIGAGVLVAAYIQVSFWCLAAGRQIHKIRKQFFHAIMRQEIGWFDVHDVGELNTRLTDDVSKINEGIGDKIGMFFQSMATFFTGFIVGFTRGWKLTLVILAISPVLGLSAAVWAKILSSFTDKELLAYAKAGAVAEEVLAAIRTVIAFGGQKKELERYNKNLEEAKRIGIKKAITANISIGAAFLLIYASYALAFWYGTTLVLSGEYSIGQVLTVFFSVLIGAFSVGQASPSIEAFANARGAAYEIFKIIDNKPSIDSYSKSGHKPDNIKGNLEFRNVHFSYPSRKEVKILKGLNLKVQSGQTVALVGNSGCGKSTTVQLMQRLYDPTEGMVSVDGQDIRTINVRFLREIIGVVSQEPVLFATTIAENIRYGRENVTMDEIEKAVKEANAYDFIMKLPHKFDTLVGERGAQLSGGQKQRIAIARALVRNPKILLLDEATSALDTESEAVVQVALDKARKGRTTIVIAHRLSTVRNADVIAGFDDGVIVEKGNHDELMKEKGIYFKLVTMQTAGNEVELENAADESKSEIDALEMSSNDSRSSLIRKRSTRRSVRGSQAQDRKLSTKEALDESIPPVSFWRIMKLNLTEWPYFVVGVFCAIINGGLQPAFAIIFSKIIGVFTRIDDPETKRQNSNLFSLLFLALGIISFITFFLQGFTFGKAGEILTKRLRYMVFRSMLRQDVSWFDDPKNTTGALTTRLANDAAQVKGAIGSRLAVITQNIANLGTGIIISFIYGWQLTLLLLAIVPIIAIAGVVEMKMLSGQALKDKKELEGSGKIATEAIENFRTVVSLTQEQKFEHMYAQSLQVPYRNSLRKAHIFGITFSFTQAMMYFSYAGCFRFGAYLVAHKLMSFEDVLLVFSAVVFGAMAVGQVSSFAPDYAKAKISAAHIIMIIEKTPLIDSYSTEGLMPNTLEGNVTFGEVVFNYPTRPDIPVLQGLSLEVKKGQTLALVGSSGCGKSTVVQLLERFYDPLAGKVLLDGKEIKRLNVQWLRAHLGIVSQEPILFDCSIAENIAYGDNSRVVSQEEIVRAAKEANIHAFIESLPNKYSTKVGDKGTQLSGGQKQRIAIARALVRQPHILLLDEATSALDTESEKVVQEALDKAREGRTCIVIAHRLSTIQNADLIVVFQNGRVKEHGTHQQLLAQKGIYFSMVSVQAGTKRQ
From the text: The 50% bioavailability of AZD0328 in human was conservatively selected based on the observations from rat, dog and monkey.

α7 receptor [2] = molecular target: T2, α7 receptor (Rattus norvegicus, UniProt Q05941); assay: FFX hippocampal slice fEPSP, LTP; format: cell-based; conditions: 10 μM
T2 sequence (Q05941 23-502): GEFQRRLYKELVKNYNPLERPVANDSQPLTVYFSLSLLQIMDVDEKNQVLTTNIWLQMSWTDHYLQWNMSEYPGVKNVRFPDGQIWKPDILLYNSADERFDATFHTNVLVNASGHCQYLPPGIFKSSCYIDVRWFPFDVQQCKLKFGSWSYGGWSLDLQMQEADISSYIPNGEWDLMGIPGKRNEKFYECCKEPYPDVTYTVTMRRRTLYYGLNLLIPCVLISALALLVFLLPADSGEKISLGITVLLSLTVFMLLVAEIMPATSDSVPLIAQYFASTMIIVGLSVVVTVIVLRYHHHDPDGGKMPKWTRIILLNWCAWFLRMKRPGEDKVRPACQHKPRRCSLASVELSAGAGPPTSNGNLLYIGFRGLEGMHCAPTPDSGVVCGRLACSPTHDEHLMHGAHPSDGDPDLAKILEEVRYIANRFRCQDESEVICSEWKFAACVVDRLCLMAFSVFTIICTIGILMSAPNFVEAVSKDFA
From the text: (§1) In membranes prepared either from cultured, human recombinant α7 receptor-expressing, human embryonic kidney cells α7-HEK) or from rat brain hippocampus, AZD0328 competed with binding of an iodinated form of the high-affinity, selective α7 receptor antagonist snake toxin, [^125I]-α-bungarotoxin (BTX) (Table 1). In Xenopus oocytes injected with human, recombinant α7 receptor mRNA, AZD0328 activates whole cell currents (Table 2). […] In acutely dissociated rat hippocampal interneurons, AZD0328 elicits rapidly activated, desensitizing whole-cell current (Table 1), consistent with the known properties of rat neuronal α7 receptors. […] AZD0328 modulates synaptic function, consistent with the well-known role of α7 receptors as heteroreceptor modulators of glutamatergic and GABAergic synaptic function.

α7 receptor [3] = molecular target: T2, α7 receptor; assay: Pre-frontal cortex slice GABA sIPSC frequency; format: cell-based; conditions: rat PFC slice
From the text: as §1

Multiple dose PK/TK, rat = format: in vivo
From the text: (§2) This section provides a summary of the pharmacokinetic and metabolism properties of AZD0328 derived from in vivo studies. […] The derived PK/TK parameters from these studies are presented in Table 4 for single dose studies (DMR4, 0619LR, 20030191PCR, DMO16, DMB10, DMW12, 50190, 0190DD and 03.330/1), and are presented in Table 5 multiple dose PK/TK studies (DMR4, 0612AR, DMB15, 50190, 0190DD and 0295AD).

[4] = Multiple dose PK/TK, rabbit; format: in vivo; conditions: day 18; for AUC / Cmax / Tmax: female, New Zealand White, in vivo, sc
From the text: as §2

ferrets = assay: Emetic potential in ferrets; format: in vivo; conditions: ferret
Protocol: The emetic potential of AZD0328 was investigated in ferrets (n=6-8/dose) following a single oral dose of vehicle or AZD0328 (Table 3). Videotape recordings were used for observation of the animals up to 4 h after dose for quantitation and timing of emetic behaviours, characterised as retches (abdominal contractions), vomits and wet-dog shakes.

[5] = both sexes, rat, in vivo, po, 2.16 mg/kg, rat 1F+1M, DMR4, 2.16 mg/kg (10 μmol/kg), day 1
[6] = both sexes, rat, in vivo, po, 2.16 mg/kg, rat 1F+1M, DMR4, 2.16 mg/kg (10 μmol/kg), day 7
[7] = female, rat, in vivo, po, 2.16 mg/kg, rat 4F, 0612AR, 2.16 mg/kg (10 μmol/kg), day 1
[8] = female, rat, in vivo, po, 2.16 mg/kg, rat 4F, 0612AR, 2.16 mg/kg (10 μmol/kg), day 30
[9] = female, rat, in vivo, po, 15.1 mg/kg, rat 4F, 0612AR, 15.1 mg/kg (70 μmol/kg), day 1
[10] = female, rat, in vivo, po, 15.1 mg/kg, rat 4F, 0612AR, 15.1 mg/kg (70 μmol/kg), day 30
[11] = female, rat, in vivo, po, 64.9 mg/kg, rat 4F, 0612AR, 64.9 mg/kg (300 μmol/kg), day 1
[12] = female, rat, in vivo, po, 64.9 mg/kg, rat 4F, 0612AR, 64.9 mg/kg (300 μmol/kg), day 30
[13] = male, rat, in vivo, po, 2.16 mg/kg, rat 4M, 062AR, 2.16 mg/kg (10 μmol/kg), day 30
[14] = male, rat, in vivo, po, 2.16 mg/kg, rat 4M, 0612AR, 2.16 mg/kg (10 μmol/kg), day 1
[15] = male, rat, in vivo, po, 15.1 mg/kg, rat 4M, 0612AR, 15.1 mg/kg (70 μmol/kg), day 1
[16] = male, rat, in vivo, po, 15.1 mg/kg, rat 4M, 0612AR, 15.1 mg/kg (70 μmol/kg), day 30
[17] = male, rat, in vivo, po, 64.9 mg/kg, rat 4M, 0612AR, 64.9 mg/kg (300 μmol/kg), day 1
[18] = male, rat, in vivo, po, 64.9 mg/kg, rat 4M, 0612AR, 64.9 mg/kg (300 μmol/kg), day 30
[19] = rabbit 2F, DMB15, subcutaneous 1.15 mg/kg (3 μmol/kg)
[20] = rabbit 3F, DMB15, subcutaneous 0.115 mg/kg (0.3 μmol/kg)
[21] = rabbit 3F, DMB15, subcutaneous 0.269 mg/kg (0.7 μmol/kg)
[22] = rabbit 3F, DMB15, subcutaneous 0.384 mg/kg (1 μmol/kg)
[23] = rabbit 3F, DMB15, subcutaneous 3.84 mg/kg (10 μmol/kg)

With `c1cnc2c(c1)C[C@@]1(CN3CCC1CC3)O2` [AZD0328, (R)-Spiro[1-azabicyclo[2.2.2]octane-3,2′(3′H)-furo[2,3-b]pyridine]] the “Dose active: Ventral Tegmental Area dopamine neuron firing - increased” value [1] was 0.00138 mg/kg, the “inhibition of Pgp mediated digoxin transport” value (Pgp transporter) was “did not significantly inhibit” and the “decrease of digoxin transport” value (Pgp transporter; 10.8 μg/mL (50 μM)) was 11%. For the same compound, the “fEPSP LTP” value (α7 receptor [2]) was 153 % baseline, the EC50 (α7 receptor [3]) was 700 nM and the Emax (α7 receptor [3]; read-out: Maximum response, GABA sIPSC frequency) was 330%. The AUC (Multiple dose PK/TK, rat; [5]) was 699 ng·h/mL to 861 ng·h/mL and 3.23 µM·h to 3.98 µM·h, the Cmax (Multiple dose PK/TK, rat; [5]) was 251 ng/mL to 344 ng/mL and 1.16 µM to 1.59 µM and the Tmax (Multiple dose PK/TK, rat; [5]) was 0.5 to 1 h. The AUC (Multiple dose PK/TK, rat; [6]) was 2.77 µM·h to 3.96 µM·h and 599 ng·h/mL to 857 ng·h/mL, the Cmax (Multiple dose PK/TK, rat; [6]) was 212 to 324 ng/mL and the Cmax at 7 day (Multiple dose PK/TK, rat; [6]) was 981 to 1500 nM. The Tmax (Multiple dose PK/TK, rat; [6]) was 0.5 h, the AUC (Multiple dose PK/TK, rat; [7]) was 916 ng·h/mL and 7.25 µM·h and the Cmax at 1 day (Multiple dose PK/TK, rat; [7]) was 236 ng/mL and 1.87 µM. The Tmax at 1 day (Multiple dose PK/TK, rat; [7]) was 1 h, the AUC (Multiple dose PK/TK, rat; [8]) was 858 ng·h/mL and 6.79 µM·h and the Cmax at 30 day (Multiple dose PK/TK, rat; [8]) was 220 ng/mL and 1.74 µM. The Tmax at 30 day (Multiple dose PK/TK, rat; [8]) was 1 h, the AUC (Multiple dose PK/TK, rat; [9]) was 8120 ng·h/mL and 64.3 µM·h and the Cmax at 1 day (Multiple dose PK/TK, rat; [9]) was 984 ng/mL and 7.79 µM. The Tmax at 1 day (Multiple dose PK/TK, rat; [9]) was 1 h, the AUC (Multiple dose PK/TK, rat; [10]) was 9600 ng·h/mL and 76 µM·h and the Cmax at 30 day (Multiple dose PK/TK, rat; [10]) was 1420 ng/mL and 11.2 µM. The Tmax at 30 day (Multiple dose PK/TK, rat; [10]) was 1 h, the AUC (Multiple dose PK/TK, rat; [11]) was 40400 ng·h/mL and 320 µM·h and the Cmax (Multiple dose PK/TK, rat; [11]) was 2480 ng/mL and 19.6 µM. For the same compound, the Tmax (Multiple dose PK/TK, rat; [11]) was 1 to 3 h, the AUC (Multiple dose PK/TK, rat; [12]) was 42100 ng·h/mL and 333 µM·h and the Cmax (Multiple dose PK/TK, rat; [12]) was 2930 ng/mL and 23.2 µM. For the same compound, the Tmax (Multiple dose PK/TK, rat; [12]) was 1 h, the AUC (Multiple dose PK/TK, rat; [13]) was 412 ng·h/mL and 3.26 µM·h and the Cmax at 30 day (Multiple dose PK/TK, rat; [13]) was 154 ng/mL and 1.22 µM. The Tmax at 30 day (Multiple dose PK/TK, rat; [13]) was 1 h, the AUC (Multiple dose PK/TK, rat; [14]) was 528 ng·h/mL and 4.18 µM·h and the Cmax at 1 day (Multiple dose PK/TK, rat; [14]) was 189 ng/mL and 1.5 µM. For the same compound, the Tmax at 1 day (Multiple dose PK/TK, rat; [14]) was 1 h, the AUC (Multiple dose PK/TK, rat; [15]) was 4230 ng·h/mL and 33.5 µM·h and the Cmax at 1 day (Multiple dose PK/TK, rat; [15]) was 769 ng/mL and 6.09 µM. The Tmax at 1 day (Multiple dose PK/TK, rat; [15]) was 1 to 3 h, the AUC (Multiple dose PK/TK, rat; [16]) was 5630 ng·h/mL and 44.6 µM·h and the Cmax at 30 day (Multiple dose PK/TK, rat; [16]) was 1160 ng/mL and 9.21 µM. For the same compound, the Tmax at 30 day (Multiple dose PK/TK, rat; [16]) was 1 h, the AUC (Multiple dose PK/TK, rat; [17]) was 23900 ng·h/mL and 189 µM·h and the Cmax (Multiple dose PK/TK, rat; [17]) was 1670 ng/mL and 13.2 µM. The Tmax (Multiple dose PK/TK, rat; [17]) was 1 to 6 h, the AUC (Multiple dose PK/TK, rat; [18]) was 29300 ng·h/mL and 232 µM·h and the Cmax (Multiple dose PK/TK, rat; [18]) was 2780 ng/mL and 22 µM. The Tmax (Multiple dose PK/TK, rat; [18]) was 1 h, the AUC/dose (Multiple dose PK/TK, rat; rat 1F+1M, DMR4, 2.16 mg/kg (10 μmol/kg), day 1) was 0.323-0.398 and the AUC/dose (Multiple dose PK/TK, rat; rat 1F+1M, DMR4, 2.16 mg/kg (10 μmol/kg), day 7) was 0.277-0.396. For the same compound, the AUC/dose (Multiple dose PK/TK, rat; rat 4F, 0612AR, 2.16 mg/kg (10 μmol/kg), day 1) was 0.725 ± 0.068, the AUC/dose (Multiple dose PK/TK, rat; rat 4F, 0612AR, 2.16 mg/kg (10 μmol/kg), day 30) was 0.679 ± 0.134 and the AUC/dose (Multiple dose PK/TK, rat; rat 4F, 0612AR, 15.1 mg/kg (70 μmol/kg), day 1) was 0.919 ± 0.071. For the same compound, the AUC/dose (Multiple dose PK/TK, rat; rat 4F, 0612AR, 15.1 mg/kg (70 μmol/kg), day 30) was 1.09 ± 0.13, the AUC/dose (Multiple dose PK/TK, rat; rat 4F, 0612AR, 64.9 mg/kg (300 μmol/kg), day 1) was 1.07 ± 0.10 and the AUC/dose (Multiple dose PK/TK, rat; rat 4F, 0612AR, 64.9 mg/kg (300 μmol/kg), day 30) was 1.11 ± 0.14. It also gave an AUC/dose (Multiple dose PK/TK, rat; rat 4M, 062AR, 2.16 mg/kg (10 μmol/kg), day 30) of 0.326 ± 0.084, an AUC/dose (Multiple dose PK/TK, rat; rat 4M, 0612AR, 2.16 mg/kg (10 μmol/kg), day 1) of 0.418 ± 0.062 and an AUC/dose (Multiple dose PK/TK, rat; rat 4M, 0612AR, 15.1 mg/kg (70 μmol/kg), day 1) of 0.479 ± 0.037. For the same compound, the AUC/dose (Multiple dose PK/TK, rat; rat 4M, 0612AR, 15.1 mg/kg (70 μmol/kg), day 30) was 0.637 ± 0.043, the AUC/dose (Multiple dose PK/TK, rat; rat 4M, 0612AR, 64.9 mg/kg (300 μmol/kg), day 1) was 0.630 ± 0.083 and the AUC/dose (Multiple dose PK/TK, rat; rat 4M, 0612AR, 64.9 mg/kg (300 μmol/kg), day 30) was 0.773 ± 0.057. For the same compound, the AUC [4, 19] was 636 ng·h/mL to 846 ng·h/mL and 2.9 µM·h to 3.9 µM·h, the Cmax [4, 19] was 224 ng/mL to 296 ng/mL and 1.04 µM to 1.37 µM and the Tmax [4, 19] was 0.3 to 1 h. For the same compound, the AUC [4, 20] was 50.2 ng·h/mL and 0.205 µM·h, the Cmax [4, 20] was 24.7 ng/mL and 111 nM and the Tmax [4, 20] was 0.317 to 0.97 h. For the same compound, the AUC [4, 21] was 0.872 µM·h, the Cmax [4, 21] was 138 ng/mL and 583 nM and the Tmax [4, 21] was 0.217 to 0.483 h. For the same compound, the AUC [4, 22] was 232 ng·h/mL and 1.01 µM·h, the Cmax [4, 22] was 78.1 ng/mL and 317 nM and the Tmax [4, 22] was 0.25 to 2.02 h. For the same compound, the AUC [4, 23] was 2510 ng·h/mL and 11.6 µM·h, the Cmax [4, 23] was 677 ng/mL and 3.13 µM and the Tmax [4, 23] was 0.483 to 2.18 h. For the same compound, the AUC/dose [4, 19] was 0.212-0.282, the AUC/dose [4, 20] was 0.148 ± 0.038 and the AUC/dose [4, 21] was 0.270 ± 0.106. The AUC/dose [4, 23] was 0.251 ± 0.129, the “dose with statistically significant difference from vehicle for retches” value (ferrets; oral) was 5.6 mg/kg and the emetic responses (ferrets; oral gavage 5.6, 16.9 or 56.2 mg/kg) was “emetic responses were present at all doses”.

From patent US20080242688A1, “Method 741” (ASTRAZENECA AB, priority 2007, published 2008)
